# From patent US6362369B1, “Phthalic acid diamide derivatives fluorine-containing aniline compounds as starting material, agricultural and horticultural insecticides, and a method for application of the insecticides” (Nihon Nohyaku Co., Ltd., priority 1997, dated 2002)
# Legend:
# Format in all cases: in vivo
# [1] = system: diamondback moth (Plutella xylostella); test: Insecticidal effect on diamondback moth (Test Example 1); details: diamondback moth; judged by the mortality criterion of Test Example 1
# In short: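 Eggs laid by adult moths on Chinese cabbage seedlings, which were immersed in test solution, air-dried and kept at 25 °C. Hatched insects counted 6 days after immersion and mortality calculated, with effect graded by criterion; triplicate groups of 10 insects.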
# [2] = system: common cutworm (Spodoptera Litura); test: Insecticidal effect on common cutworm (Test Example 2); details: 500 ppm; cabbage leaf immersed; second-instar larvae of common cutworm; eight days after inoculation; 25° C.
# In short: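 2nd-instar larvae on air-dried treatment, closed dish, 25° C; dead/alive counted at day 8. Mortality calculated, graded by criterion. 3 × 10 insects.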
# [3] = system: rice leafroller (Cnaphalocrocis medinalis); test: Insecticidal effect on rice leafroller (Test Example 3); details: 500 ppm; rice lamina immersed; third-instar larvae of rice leafroller; four days after inoculation; 25° C., humidity 70%
# In short: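 Groups of 10 third-instar larvae, in triplicate, are placed on air-dried lamina resting on wet filter paper. Incubation runs four days at 25° C with 70% humidity before survivors and dead are tallied.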
Compound,"Insecticidal effect, Test Example 1 [1]","Insecticidal effect, Test Example 2 [2]","Insecticidal effect, Test Example 3 [3]"
COc1ccc(NC(=O)c2c(Cl)cccc2C(=O)NC(C)C)c(C)c1C [compound 219],A (100),D (79-50),A (100)
Cc1cc(C(F)(F)F)ccc1NC(=O)c1c(Cl)cccc1C(=O)NC(C)C [compound 221],A (100),A (100),A (100)
Cc1cc(OC(F)(F)C(Cl)(Cl)Cl)ccc1NC(=O)c1c(Cl)cccc1C(=O)NC(C)C [compound 222],A (100),B (99-90),A (100)
Cc1cc(C(F)(F)C(F)(F)F)ccc1NC(=O)c1c(Cl)cccc1C(=O)NC(C)C [compound 223],A (100),A (100),A (100)
Cc1cc(C(F)(F)C(F)(F)C(F)(F)C(F)(F)F)ccc1NC(=O)c1c(Cl)cccc1C(=O)NC(C)C [compound 225],A (100),B (99-90),A (100)
Cc1cc(OC(F)(F)C(F)(F)Br)ccc1NC(=O)c1c(Cl)cccc1C(=O)NC(C)C [compound 229],A (100),D (79-50),A (100)
Cc1cc(OCC(F)(F)C(F)F)ccc1NC(=O)c1c(Cl)cccc1C(=O)NC(C)C [compound 230],A (100),C (89-80),A (100)
Cc1cc(OC(F)F)ccc1NC(=O)c1c(Cl)cccc1C(=O)NC(C)C [compound 236],A (100),A (100),A (100)
Cc1cc(OC(F)(F)C(F)Cl)ccc1NC(=O)c1c(Cl)cccc1C(=O)NC(C)C (stereo not drawn) [compound 241],A (100),B (99-90),A (100)
Cc1cc(OC(F)(F)C(F)C(F)(F)F)ccc1NC(=O)c1c(Cl)cccc1C(=O)NC(C)C (stereo not drawn) [compound 242],A (100),B (99-90),A (100)
Cc1cc(OC(F)(F)C(F)(Br)C(F)(F)F)ccc1NC(=O)c1c(Cl)cccc1C(=O)NC(C)C (stereo not drawn) [compound 243],A (100),A (100),B (99-90)
Cc1cc(OC(F)(F)C(F)F)c(Cl)cc1NC(=O)c1c(Cl)cccc1C(=O)NC(C)C [compound 246],A (100),B (99-90),B (99-90)
Cc1cc(Oc2ccc(C(F)(F)F)cn2)ccc1NC(=O)c1c(Cl)cccc1C(=O)NC(C)C [compound 249],A (100),D (79-50),A (100)
CC(C)NC(=O)c1cccc(Cl)c1C(=O)Nc1ccc(OC(F)F)cc1C(F)(F)F [compound 253],A (100),A (100),C (89-80)
CC(C)NC(=O)c1c(Br)cccc1C(=O)Nc1ccc(C(F)(F)F)cc1 [compound 261],A (100),A (100),D (79-50)
Cc1c(Cl)cccc1NC(=O)c1cccc(Br)c1C(=O)NC(C)C [compound 266],A (100),A (100),A (100)
Cc1cc(Cl)ccc1NC(=O)c1cccc(Br)c1C(=O)NC(C)C [compound 267],A (100),A (100),A (100)
Cc1ccc(Cl)cc1NC(=O)c1cccc(Br)c1C(=O)NC(C)C [compound 268],A (100),A (100),A (100)
Cc1c(Cl)ccc(NC(=O)c2cccc(Br)c2C(=O)NC(C)C)c1C [compound 269],A (100),A (100),A (100)
Cc1ccc(NC(=O)c2cccc(Br)c2C(=O)NC(C)C)c(C)c1Cl [compound 270],A (100),A (100),A (100)
CCc1cc(Cl)ccc1NC(=O)c1cccc(Br)c1C(=O)NC(C)C [compound 271],A (100),A (100),A (100)
